26 compounds from patent US12065436B2, “Cardiac sarcomere inhibitors” (Cytokinetics, Inc., priority 2018, dated 2024) can be followed below.

For the assay, the target named is bovine cardiac myofibrils (full-length cardiac myosin ATPase in the native sarcomere) (Bos taurus (Bovine), UniProt Q9BE39). Briefly: Skinned bovine cardiac myofibril ATPase assay (PK/LDH-coupled). It is filed as biochemical. The note with it: Ca2+ activating to 75% of maximal rate; for CDMF75 IC15: concentration giving 15% inhibition; for IC50: read-out: CDMF75 IC50. As to the method:
To evaluate the effect of compounds on the ATPase activity of full-length cardiac myosin in the context of the native sarcomere, skinned myofibril assays were performed. Bovine cardiac myofibrils were obtained by homogenizing bovine cardiac left ventricular tissue in the presence of a detergent such as triton X-100. Such treatment removes membranes and a majority of the soluble cytoplasmic proteins but leaves intact the cardiac sarcomeric acto-myosin apparatus. Myofibril preparations retain the ability to hydrolyze ATP in an Ca^2+ regulated manner. ATPase activities of such myofibril preparations in the presence and absence of compounds were assayed at Ca^2+ concentrations activating to a defined fraction of the maximal rate (i.e., 25%, 75%). Small molecule agents were assessed for their ability to inhibit the steady-state ATPase activity of bovine cardiac myofibrils using pyruvate kinase and lactate dehydrogenase (PK/LDH)-coupled enzyme system. This assay regenerates myosin-produced ADP into ATP by oxidizing NADH, producing an absorbance change at 340 nm. Prior to testing small molecule agents, the bovine cardiac myofibrils were assessed for their calcium responsiveness and the calcium concentration that achieves either a 50% (pCa50) or 75% (pCa75) activation of the myofibril system was chosen as the final condition for assessing the inhibitory activity of the small molecule agents. All enzymatic activity was measured in a buffered solution containing 12 mM PIPES (piperazine-N,N′-bis(2-ethanesulfonic acid), 2 mM magnesium chloride at pH 6.8 (PM 12 buffer). Final assay conditions were 1 mg/mL of bovine cardiac myofibrils, 4 U/mL pyruvate kinase, 6 U/mL lactate dehydrogenase, 50 μM ATP, 0.1 mg/mL BSA (bovine serum albumin), 10 ppm antifoam, 1 mM DTT, 0.5 mM NADH, 1.5 mM PEP, 0.6 mM EGTA, and an amount of CaCl2) sufficient to achieve either 50% or 75% activation of the myofibril ATPase activity.

Where only a bound is given, the exact number is not on record here.

Chain of bovine cardiac myofibrils (full-length cardiac myosin ATPase in the native sarcomere) (Q9BE39 whole entry): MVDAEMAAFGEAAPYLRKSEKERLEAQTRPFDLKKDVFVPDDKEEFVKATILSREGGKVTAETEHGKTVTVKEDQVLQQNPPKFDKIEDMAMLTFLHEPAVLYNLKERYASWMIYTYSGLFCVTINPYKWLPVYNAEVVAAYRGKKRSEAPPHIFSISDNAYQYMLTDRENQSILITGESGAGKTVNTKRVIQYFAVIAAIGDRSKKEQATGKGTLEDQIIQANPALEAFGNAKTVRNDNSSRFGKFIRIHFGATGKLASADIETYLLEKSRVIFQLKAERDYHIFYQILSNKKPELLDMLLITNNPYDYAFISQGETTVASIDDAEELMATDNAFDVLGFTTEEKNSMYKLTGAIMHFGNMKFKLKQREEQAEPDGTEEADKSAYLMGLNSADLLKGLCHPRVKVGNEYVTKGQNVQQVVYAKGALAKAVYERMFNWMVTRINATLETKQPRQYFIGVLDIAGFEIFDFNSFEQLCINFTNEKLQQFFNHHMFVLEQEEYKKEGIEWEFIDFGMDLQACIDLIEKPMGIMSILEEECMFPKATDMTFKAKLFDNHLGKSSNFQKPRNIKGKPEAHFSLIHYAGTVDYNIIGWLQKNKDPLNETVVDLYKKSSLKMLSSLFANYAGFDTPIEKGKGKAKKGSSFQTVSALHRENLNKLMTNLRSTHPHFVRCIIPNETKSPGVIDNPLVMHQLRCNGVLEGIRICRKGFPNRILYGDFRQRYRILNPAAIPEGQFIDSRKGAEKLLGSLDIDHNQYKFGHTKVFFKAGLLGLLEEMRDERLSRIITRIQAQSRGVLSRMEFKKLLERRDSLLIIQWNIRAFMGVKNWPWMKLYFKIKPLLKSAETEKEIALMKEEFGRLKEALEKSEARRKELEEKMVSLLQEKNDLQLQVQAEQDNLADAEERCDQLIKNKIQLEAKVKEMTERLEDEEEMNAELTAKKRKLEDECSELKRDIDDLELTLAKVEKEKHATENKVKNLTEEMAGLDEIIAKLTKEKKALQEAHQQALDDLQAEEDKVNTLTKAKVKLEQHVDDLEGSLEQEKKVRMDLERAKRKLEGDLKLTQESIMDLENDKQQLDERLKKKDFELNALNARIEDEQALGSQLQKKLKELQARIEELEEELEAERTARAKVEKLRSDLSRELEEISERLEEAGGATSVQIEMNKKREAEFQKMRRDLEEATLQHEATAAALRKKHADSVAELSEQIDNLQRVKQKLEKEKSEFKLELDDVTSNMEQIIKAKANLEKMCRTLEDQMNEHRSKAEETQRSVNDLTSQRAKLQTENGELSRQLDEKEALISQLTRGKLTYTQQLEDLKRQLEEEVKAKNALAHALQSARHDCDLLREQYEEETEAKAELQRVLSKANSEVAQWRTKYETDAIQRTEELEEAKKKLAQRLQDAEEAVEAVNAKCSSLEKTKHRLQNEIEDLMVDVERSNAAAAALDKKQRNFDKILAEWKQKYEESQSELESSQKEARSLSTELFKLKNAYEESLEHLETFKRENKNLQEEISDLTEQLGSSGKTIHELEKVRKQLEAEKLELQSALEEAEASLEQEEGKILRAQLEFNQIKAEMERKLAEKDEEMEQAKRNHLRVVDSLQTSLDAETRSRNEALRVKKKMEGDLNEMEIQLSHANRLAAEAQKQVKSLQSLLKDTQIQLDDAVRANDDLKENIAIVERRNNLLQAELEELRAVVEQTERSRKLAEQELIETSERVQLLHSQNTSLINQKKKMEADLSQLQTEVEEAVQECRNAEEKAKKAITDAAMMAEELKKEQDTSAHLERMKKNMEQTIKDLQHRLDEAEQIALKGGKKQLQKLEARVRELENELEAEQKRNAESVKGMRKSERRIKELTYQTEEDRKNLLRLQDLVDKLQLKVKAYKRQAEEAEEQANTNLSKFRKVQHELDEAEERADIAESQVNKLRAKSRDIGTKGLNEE
Chain of bovine cardiac myofibrils (full-length cardiac myosin ATPase in the native sarcomere) (P85100 whole entry partner): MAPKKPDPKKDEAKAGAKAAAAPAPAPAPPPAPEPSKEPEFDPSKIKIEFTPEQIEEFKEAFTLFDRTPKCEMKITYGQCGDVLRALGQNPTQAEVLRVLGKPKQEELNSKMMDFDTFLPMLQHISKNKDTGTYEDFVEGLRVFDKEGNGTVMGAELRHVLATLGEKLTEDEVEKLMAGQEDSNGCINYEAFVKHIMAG
Chain of bovine cardiac myofibrils (full-length cardiac myosin ATPase in the native sarcomere) (Q3SZE5 whole entry partner): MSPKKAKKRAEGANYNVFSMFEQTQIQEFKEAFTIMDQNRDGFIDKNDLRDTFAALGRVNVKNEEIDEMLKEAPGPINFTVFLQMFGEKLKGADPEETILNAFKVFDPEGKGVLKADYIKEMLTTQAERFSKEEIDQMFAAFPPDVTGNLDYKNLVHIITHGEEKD

`Cc1cc(C(=O)N[C@H]2CCc3cc(-c4nnn(C)n4)ccc32)ccn1` [Compound 149, (S)-2-methyl-N-(5-(2-methyl-2H-tetrazol-5-yl)-2,3-dihydro-1H-inden-1-yl)isonicotinamide]: the “CDMF75 IC15” value turned out to be 39.2 µM and the IC50 – broadly, the concentration needed to halve the response being measured – was over 39.2 µM.

`CCc1noc(-c2ccc3c(c2)CC[C@H]3NC(=O)c2nnn(C)n2)n1` [Compound 256, (R)-N-(5-(3-ethyl-1,2,4-oxadiazol-5-yl)-2,3-dihydro-1H-inden-1-yl)-2-methyl-2H-tetrazole-5-carboxamide]: the “CDMF75 IC15” value came to 0.5 µM and the IC50 is 1.7 µM.

As for `Cc1nc(-c2ccc3c(c2)CC[C@H]3NC(=O)c2cn(C)nc2C)no1` [Compound 111, (R)-1,3-dimethyl-N-(5-(5-methyl-1,2,4-oxadiazol-3-yl)-2,3-dihydro-1H-inden-1-yl)-1H-pyrazole-4-carboxamide], the “CDMF75 IC15” value was 1.1 µM and the IC50 was 3.7 µM.

As to `CCc1nc(-c2ccc3c(c2)CC[C@H]3NC(=O)c2cccc(C=O)c2)no1` [Compound 658, (R)-N-(5-(5-ethyl-1,2,4-oxadiazol-3-yl)-2,3-dihydro-1H-inden-1-yl)-3-formylbenzamide], the “CDMF75 IC15” value was found to be 0.3 µM and the IC50 is 0.9 µM.

With `O=C(N[C@@H]1CCc2cc(-c3noc(C(F)F)n3)ccc21)C1COC1` [Compound 288, (R)-N-(5-(5-(difluoromethyl)-1,2,4-oxadiazol-3-yl)-2,3-dihydro-1H-inden-1-yl)oxetane-3-carboxamide], the “CDMF75 IC15” value came out at 10.6 µM and the IC50 was over 39.2 µM.

As for `CCc1nc(-c2ccc3c(c2)CC[C@H]3NC(=O)C2CCCC(=O)N2)no1` (stereo partly drawn) [Compound 354, N-((R)-5-(5-ethyl-1,2,4-oxadiazol-3-yl)-2,3-dihydro-1H-inden-1-yl)-6-oxopiperidine-2-carboxamide], the “CDMF75 IC15” value was 34.1 µM and the IC50 was over 39.2 µM.

Take `Cc1nc(C)c(C(=O)N[C@@H]2COc3cc(-c4noc(C(F)F)n4)ccc32)o1` [Compound 193, (S)-N-(6-(5-(difluoromethyl)-1,2,4-oxadiazol-3-yl)-2,3-dihydrobenzofuran-3-yl)-2,4-dimethyloxazole-5-carboxamide]: the “CDMF75 IC15” value turned out to be 0.5 µM and the IC50 was found to be 2.1 µM.

As for `Cc1nn(C)cc1C(=O)NC1CCc2cc(-c3noc(C(C)C)n3)ccc21` (stereo not shown) [Compound 75, N-(5-(5-isopropyl-1,2,4-oxadiazol-3-yl)-2,3-dihydro-1H-inden-1-yl)-1,3-dimethyl-1H-pyrazole-4-carboxamide], the “CDMF75 IC15” value stood at 0.9 µM and the IC50 is 3.1 µM.

On to `CCc1nc(-c2ccc3c(c2)CC[C@H]3NC(=O)c2cc(CO)ccc2F)no1` [Compound 649, (R)-N-(5-(5-ethyl-1,2,4-oxadiazol-3-yl)-2,3-dihydro-1H-inden-1-yl)-2-fluoro-5-(hydroxymethyl)benzamide], for which the “CDMF75 IC15” value worked out at 0.9 µM and the IC50 was determined as 3.4 µM.

`CCc1nc(-c2ccc3c(c2)CC[C@H]3NC(=O)c2ccnc(Cl)c2)no1` [Compound 647, (R)-2-chloro-N-(5-(5-ethyl-1,2,4-oxadiazol-3-yl)-2,3-dihydro-1H-inden-1-yl)isonicotinamide]: the “CDMF75 IC15” value amounted to 0.3 µM and the IC50 turned out to be 0.9 µM.

With `Cc1cc(C(=O)N[C@@H]2COc3cc(-c4noc(C5CC5)n4)ccc32)n(C)n1` [Compound 233, (S)-N-(6-(5-cyclopropyl-1,2,4-oxadiazol-3-yl)-2,3-dihydrobenzofuran-3-yl)-1,3-dimethyl-1H-pyrazole-5-carboxamide], the “CDMF75 IC15” value turned out to be 0.3 µM and the IC50 stood at 1.1 µM.

Consider `CCc1nc(-c2ccc3c(c2)OC[C@H]3NC(C)=O)no1` [Compound 443, (S)-N-(6-(5-ethyl-1,2,4-oxadiazol-3-yl)-2,3-dihydrobenzofuran-3-yl)acetamide], for which the “CDMF75 IC15” value is 0.7 µM and the IC50 came to 2.6 µM.

As for `Cc1noc(-c2ccc3c(c2)CC[C@H]3NC(=O)c2nnc(C)o2)n1` [Compound 703, (R)-5-methyl-N-(5-(3-methyl-1,2,4-oxadiazol-5-yl)-2,3-dihydro-1H-inden-1-yl)-1,3,4-oxadiazole-2-carboxamide], the “CDMF75 IC15” value stood at 1.7 µM and the IC50 came out at 6.2 µM.

Turning to `Cc1cc(C(=O)N[C@@H]2COc3cc(-c4noc(C)n4)cnc32)ccn1` [Compound 188, (S)-2-methyl-N-(6-(5-methyl-1,2,4-oxadiazol-3-yl)-2,3-dihydrofuro[3,2-b]pyridin-3-yl)isonicotinamide], the “CDMF75 IC15” value turned out to be 5.3 µM and the IC50 is 23.6 µM.

For `[2H]C([2H])([2H])c1nc(-c2ccc3c(c2)OC[C@H]3NC(=O)c2cnn(C)c2C)no1` [Compound 269, (S)-1,5-dimethyl-N-(6-(5-(methyl-d3)-1,2,4-oxadiazol-3-yl)-2,3-dihydrobenzofuran-3-yl)-1H-pyrazole-4-carboxamide], the “CDMF75 IC15” value was 1.1 µM and the IC50 was 3.5 µM.

In the case of `O=C(N[C@@H]1CCc2cc(-c3noc(C(F)F)n3)ccc21)c1cc(CO)ccc1F` [Compound 663, (R)-N-(5-(5-(difluoromethyl)-1,2,4-oxadiazol-3-yl)-2,3-dihydro-1H-inden-1-yl)-2-fluoro-5-(hydroxymethyl)benzamide], the “CDMF75 IC15” value came to 2.3 µM and the IC50 came out at 19.6 µM.

Turning to `O=C(N[C@@H]1CCc2cc(-c3noc(C4CC4)n3)ccc21)c1cnn(CCO)c1` [Compound 521, (R)-N-(5-(5-cyclopropyl-1,2,4-oxadiazol-3-yl)-2,3-dihydro-1H-inden-1-yl)-1-(2-hydroxyethyl)-1H-pyrazole-4-carboxamide], the “CDMF75 IC15” value was found to be 1.2 µM and the IC50 is 5 µM.

Turning to `CCNC(=O)N[C@@H]1CCc2cc(-c3noc(C(F)F)n3)ccc21` [Compound 296, (R)-1-(5-(5-(difluoromethyl)-1,2,4-oxadiazol-3-yl)-2,3-dihydro-1H-inden-1-yl)-3-ethylurea], the “CDMF75 IC15” value came to 5.8 µM and the IC50 is over 39.2 µM.

On to `CCc1nc(-c2ccc3c(c2)CCCC3NC(=O)c2ccnn2C)no1` (stereo not shown) [Compound 525, N-(6-(5-ethyl-1,2,4-oxadiazol-3-yl)-1,2,3,4-tetrahydronaphthalen-1-yl)-1-methyl-1H-pyrazole-5-carboxamide], for which the “CDMF75 IC15” value is 0.7 µM and the IC50 is 2.5 µM.

For the compound `COCc1nc(-c2ccc3c(c2)OC[C@@H]3NC(=O)c2cc(C)nn2C)no1` [Compound 225, (R)-N-(6-(5-(methoxymethyl)-1,2,4-oxadiazol-3-yl)-2,3-dihydrobenzofuran-3-yl)-1,3-dimethyl-1H-pyrazole-5-carboxamide], the “CDMF75 IC15” value worked out at 39.2 µM and the IC50 came out at 39.2 µM.

Take `CC(=O)N[C@@H]1COc2cc(-c3noc(C4(C)CC4)n3)ccc21` [Compound 461, (S)-N-(6-(5-(1-methylcyclopropyl)-1,2,4-oxadiazol-3-yl)-2,3-dihydrobenzofuran-3-yl)acetamide]: the “CDMF75 IC15” value is 1.3 µM and the IC50 turned out to be 6.5 µM.

For `Cc1noc(-c2ccc3c(c2)OC[C@H]3NC(=O)c2cnn(C)c2)n1` [Compound 313, (S)-1-methyl-N-(6-(3-methyl-1,2,4-oxadiazol-5-yl)-2,3-dihydrobenzofuran-3-yl)-1H-pyrazole-4-carboxamide], the “CDMF75 IC15” value amounted to 1.6 µM and the IC50 turned out to be 6.5 µM.

For `Cn1nnc(C(=O)N[C@@H]2COc3cc(-c4noc(C5CC5)n4)ccc32)n1` [Compound 235, (S)-N-(6-(5-cyclopropyl-1,2,4-oxadiazol-3-yl)-2,3-dihydrobenzofuran-3-yl)-2-methyl-2H-tetrazole-5-carboxamide], the “CDMF75 IC15” value amounted to 1.2 µM and the IC50 came to 4.8 µM.

As for `CC(C)(O)C(=O)N[C@@H]1CCc2cc(-c3noc(C(F)F)n3)ccc21` [Compound 290, (R)-N-(5-(5-(difluoromethyl)-1,2,4-oxadiazol-3-yl)-2,3-dihydro-1H-inden-1-yl)-2-hydroxy-2-methylpropanamide], the “CDMF75 IC15” value was determined as 39.2 µM and the IC50 was over 39.2 µM.

Turning to `Cc1cc(-c2ccc3c(c2)OC[C@H]3NC(=O)c2ccnn2C)no1` [Compound 427, (S)-1-methyl-N-(6-(5-methylisoxazol-3-yl)-2,3-dihydrobenzofuran-3-yl)-1H-pyrazole-5-carboxamide], the “CDMF75 IC15” value was determined as 0.5 µM and the IC50 turned out to be 1.6 µM.

In the case of `COC(C)c1nc(-c2ccc3c(c2)CC[C@H]3NC(=O)c2cnn(C)c2)no1` (stereo partly drawn) [Compound 551, N-((1R)-5-(5-(1-methoxyethyl)-1,2,4-oxadiazol-3-yl)-2,3-dihydro-1H-inden-1-yl)-1-methyl-1H-pyrazole-4-carboxamide], the “CDMF75 IC15” value was determined as 3.6 µM and the IC50 stood at 14.6 µM.
